Results as given in patent publication US10111854B2, “Synthesis and use of amine-containing flavonoids as potent anti-leishmanial agents” (The Hong Kong Polytechnic University, priority 2014, dated 2018).
≈ marks a conversion by molar mass, not a printed value. Like-named read-outs stand apart in the source and are kept apart here.

Assays:
Water solubility = assay type: physicochemical
Excerpt: In terms of physicochemical properties, all flavonoid monomers listed as active against either L. amazonensis (Table 3A) or L. donovani (Table 3B) are smaller than 39, and have fewer H-bond donors and acceptors. They also have a lower calculated ACDLogP (1.978 to 4.537) than 39 (5.104), except FM05 (5.011), FM17 (5.101) and FM19 (5.451). The lower ACDLogP values mean more water soluble; better partition between hydrophilic and hydrophobic phases and potentially easier to be absorbed orally. Indeed, these flavonoid monomers are highly water soluble (up to about 40 mg/mL of the hydrochloride salt) whereas 39 is not (up to about 4 mg/ml).

[1] = Bioavailability study of flavonoid dimer 39, oral feeding vs i.v.; assay type: in vivo, Balb/c mice; settings: in 50% PEG, 30 minutes
Protocol: Amine-linked flavonoid dimers are disclosed in prior studies to be sparingly soluble in aqueous medium. Their poor oral bioavailability is confirmed by in vivo study in mice. […] Plasma concentration of 39 was determined 30 minutes after oral feeding or i.v. administration. […] Such low bioavailability precluded 39 from being used as an oral antileishmanial agent in the future.

[2] = system: L. donovani (LdAG83) promastigotes; test: Anti-promastigote activity, wild type L. donovani LdAG83; assay type: cell-based; settings: Leishmania donovani; printed in HU3 column; footnote *: wild type LdAG83 used instead of HU3
[3] = system: L. braziliensis UA847 amastigotes; test: Anti-amastigote activity in infected PEM, L. braziliensis UA847; assay type: cell-based; settings: Leishmania braziliensis, 72 h, 3 days, Giemsa, read-out: Anti-amastigote activity IC50, L. baziliensis UA847
Outline: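 Mouse peritoneal elicited macrophages were infected with late-log promastigotes (20:1, overnight or 24 hr, 37° C). Infected cells were then exposed to compound for 72 hours at 37° C. Giemsa-stained amastigotes per 100 macrophages, plus percentage of infected macrophages, were counted, and IC50 values were derived.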

[4] = system: L. amazonensis promastigotes; test: Mitochondrial membrane potential (rhodamine 123) and survivors (MTS) of promastigotes; assay type: cell-based; settings: for viability at 10 µM: Leishmania amazonensis, read-out: % of viable cells (MTS)
Protocol: 1×10^7 promastigotes were seeded into each well of 6-well plate. The promastigotes were incubated with different concentrations (0, 1.25, 2.5, 5 and 10 μM) of FM09 for 24 and 48 hr, respectively. After incubation, promastigotes were washed two times with 1×PBS and resuspended with 1000 μL of supplemented Schneider's Insect media containing 10 μg/mL of rhodamine 123 in an Eppendorf. The promastigotes were incubated with rhodamine 123 at room temperature for 40 min with shaking. After incubation, promastigotes were washed one time with cold 1×PBS and then re-suspended with 100 μL of 1×PBS. The fluorescent level of rhodamine 123 was measured with a microplate reader (excitation: 485 nm and emission: 520 nm).
L. amazonensis promastigotes were cultivated in different concentration (0, 1.25, 2.5, 5 and 10 μM) of FM09 for 24 hr or 48 hr. The promastigotes were washed and exposed to rhodamine 123 (10 μg/mL) for 40 min. The level of rhodamine 123 accumulation was measured at 520 nm using 485 nm as an excitation wavelength. 0.2% DMSO was used as a solvent control. The values were presented as mean±standard error of mean.

[5] = system: promastigotes (L. amazonensis LV78, L major FV1, L. donovani HU3, L. donovani 39); test: Anti-promastigote activity, strain not given; assay type: cell-based; settings: Leishmania amazonensis; strain not specified; read-out: IC50 against promastigotes
Protocol: Anti-promastigote activity was determined according to previous procedures (1) by Cell Titer 96® Aqueous Assay (Promega) that employed a tetrazolium compound. Promastigotes were seeded into 96-well flat bottom microtiter plate at 1×10^5 cells per well in a final volume of 100 μL medium and incubated with a series of concentrations of synthetic FM. Parasites were incubated at 27° C. for 72 hours. After 72 hours of incubation, 10 μL of MTS:PMS mixture [MTS:2-(4,5-Dimethylthiazol-2-yl-)-5-[3-(carboxymethoxy)phenyl]-2-(4-sulfophenyl)-2H-tetrazolium); PMS: phenazine methosulfate both purchased from Sigma] was added into each well of microtiter plate. The plate was then incubated at 27° C. for 4 hours for color development. After 4 hours of incubation, the OD values were determined at 490 nm using automatic microtiter plate reader (Bio-Rad).
IC50 values of known antileishmanials and the amine-containing flavonoid monomers of the present invention to promastigotes (L. amazonensis LV78, L major FV1, L. donovani HU3, L. donovani 39), macrophages (Raw 264.7 and PEM) and mouse fibroblast (L929) were determined. The anti-promastigotes activities and cytotoxicity of the amine-containing flavonoid monomers of the invention are shown in Table 1.

[6] = system: L. amazonensis LV78 promastigotes; test: Anti-promastigote activity (MTS assay), L. amazonensis LV78; assay type: cell-based; settings: Leishmania amazonensis, 72 hours
Outline: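 Promastigotes (1×10^5 per well) in Schneider's medium pH 6.9 with 10% FBS, exposed to serial compound concentrations for 72 h at 27 °C. Viability by MTS/PMS reduction over 4 h, OD 490 nm; IC50 derived.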

Row | solubility (Water solubility) [µg/mL] | Plasma level after oral feeding relative to i.v. group [1] [%] | IC50 [2] [nM] | IC50 [3] [nM] | IC50 [5] [nM] | IC50 [6] [nM] | SMILES | Mitochondrial potential (rhodamine 123 accumulation) ([4]; 0-10 μM, 24 hr and 48 hr, dose-dependent) | % of survivors (MTS) ([4]; 1.25 μM, 24 hr and 48 hr) | % of survivors (MTS) ([4]; 2.5 μM, 24 hr and 48 hr) | % of survivors (MTS) ([4]; 5 μM, 24 hr) [%] | % of survivors (MTS) ([4]; 5 μM, 48 hr) [%] | viability at 10 µM ([4]; 24 hr) [%] | viability at 10 µM ([4]; 48 hr) [%]
1 | ~4000 (≈ 5.52 mM) | < 1 | 200 ± 30 | – | – | – | O=c1cc(-c2ccc(OCCOCCN(CCOCCOc3ccc(-c4cc(=O)c5ccccc5o4)cc3)Cc3ccncc3)cc2)oc2ccccc12 [compound 39] | – | – | – | – | – | – | –
2 | – | – | – | 600 ± 100 | < 5000 | 1000 ± 300 | O=c1cc(-c2ccc(OCCOCCN(Cc3ccccn3)Cc3ccccn3)cc2)oc2ccccc12 [FM09, 2-(4-(2-(2-(bis(pyridin-2-ylmethyl)amino)ethoxy)ethoxy)phenyl)-4H-chromen-4-one] | drop of mitochondrial potential | about 100% | about 100% | 68 | 88 | 29 | 23
